According to the supplement of paper PMC10307832:

Compound: Cc1ccc(NC(=O)c2ccc(CN3CCN(C)CC3)cc2)cc1Nc1nc(-c2cccnc2)cs1 [Masitinib] + NC(=O)Nc1cc(-c2cccc(F)c2)sc1C(=O)N[C@H]1CCCNC1 [AZD7762] (partner 0.2 µM)
Test: relative viability (nuclei count vs DMSO), 5 days (fraction); higher = more cells survive
Conditions: first compound 0.01 µM
How it was run: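 Each reported value is a median over duplicate plates. It expresses relative viability: treated-well nuclei count divided by vehicle-well nuclei count. Lung cancer cell lines in 1536-well plates were dosed by pin tool a day after seeding, alone with one drug or with a fixed anchor-drug dose plus five library-drug doses (not always all listed) in √10 steps, and nuclei were counted after 5 days.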

Cell Line | relative viability
NCI-H838 | 0.818
NCI-H1651 | 0.49
NCI-H1734 | 0.595
LU99A | 0.462
PC-14 | 0.349
NCI-H596 | 1.24
EMC-BAC-2 | 0.862
NCI-H2087 | 1.22
NCI-H647 | 0.587
LK-2 | 0.4
NCI-H2126 | 0.884
NCI-H1793 | 0.473
H3255 | 0.581
LOU-NH91 | 0.748
ChaGo-K-1 | 0.928
NCI-H358 | 0.524

Cell Line | relative viability
NCI-H3122 | 0.797
HOP-62 | 0.458
HCC-44 | 0.834
LXF-289 | 0.996
BEN | 0.849
HARA | 0.444
NCI-H1648 | 0.567
HCC-78 | 0.509
NCI-H441 | 1.23
LCLC-97TM1 | 0.235
A-427 | 0.775
NCI-H460 | 0.62
NCI-H727 | 0.592
NCI-H1755 | 0.404
NCI-H2405 | 0.741

Same assay, conditions: first compound 0.03162 µM

Cell Line | relative viability
NCI-H838 | 0.883
NCI-H1651 | 0.523
NCI-H1734 | 0.515
LU99A | 0.293
PC-14 | 0.242
LCLC-103H | 0.885
NCI-H596 | 0.978
EMC-BAC-2 | 1.01
NCI-H2087 | 1.35
HCC-366 | 0.226
NCI-H647 | 0.477
LK-2 | 0.346
NCI-H2126 | 1.07
NCI-H1793 | 0.348
H3255 | 0.948
LOU-NH91 | 0.628
ChaGo-K-1 | 0.916

Cell Line | relative viability
NCI-H358 | 0.491
NCI-H3122 | 0.994
HOP-62 | 0.631
HCC-44 | 0.99
LXF-289 | 1.18
BEN | 0.64
HARA | 0.267
NCI-H1648 | 0.678
HCC-78 | 0.524
NCI-H441 | 1.2
LCLC-97TM1 | 0.288
A-427 | 0.657
NCI-H460 | 0.605
NCI-H727 | 0.626
NCI-H1755 | 0.452
NCI-H2405 | 0.778

Same assay, conditions: first compound 0.1 µM

Cell Line | relative viability
NCI-H838 | 0.913
NCI-H1651 | 0.485
NCI-H1734 | 0.599
LU99A | 0.312
PC-14 | 0.384
LCLC-103H | 0.566
NCI-H596 | 1.07
EMC-BAC-2 | 1.03
NCI-H2087 | 1.2
HCC-366 | 0.256
NCI-H647 | 0.535
LK-2 | 0.692
NCI-H2126 | 0.97
NCI-H1793 | 0.434
H3255 | 0.764
LOU-NH91 | 0.799
ChaGo-K-1 | 0.946

Cell Line | relative viability
NCI-H358 | 0.548
NCI-H3122 | 0.993
HOP-62 | 0.837
HCC-44 | 1.02
LXF-289 | 1.18
BEN | 0.882
HARA | 0.216
NCI-H1648 | 0.711
HCC-78 | 0.71
NCI-H441 | 1.28
LCLC-97TM1 | 0.229
A-427 | 0.689
NCI-H460 | 0.655
NCI-H727 | 0.566
NCI-H1755 | 0.468
NCI-H2405 | 0.738

Same assay, conditions: first compound 0.3162 µM

Cell Line | relative viability
NCI-H838 | 0.845
NCI-H1651 | 0.475
NCI-H1734 | 0.599
LU99A | 0.319
PC-14 | 0.366
LCLC-103H | 0.831
NCI-H596 | 1.1
EMC-BAC-2 | 1.05
NCI-H2087 | 1.5
HCC-366 | 0.203
NCI-H647 | 0.502
LK-2 | 0.525
NCI-H2126 | 0.973
NCI-H1793 | 0.283
H3255 | 0.705
LOU-NH91 | 0.642

Cell Line | relative viability
ChaGo-K-1 | 0.823
NCI-H358 | 0.509
NCI-H3122 | 0.921
HOP-62 | 0.679
HCC-44 | 0.958
LXF-289 | 1.14
BEN | 0.607
HCC-78 | 0.454
NCI-H441 | 1.35
LCLC-97TM1 | 0.191
A-427 | 0.744
NCI-H460 | 0.357
NCI-H727 | 0.495
NCI-H1755 | 0.45
NCI-H2405 | 0.692

Same assay, conditions: first compound 1 µM

Cell Line | relative viability
NCI-H838 | 0.892
NCI-H1651 | 0.471
NCI-H1734 | 0.545
LU99A | 0.273
PC-14 | 0.235
LCLC-103H | 0.791
NCI-H596 | 0.973
EMC-BAC-2 | 1.01
NCI-H2087 | 1.3
HCC-366 | 0.188
NCI-H647 | 0.469
LK-2 | 0.302
NCI-H2126 | 1.11
NCI-H1793 | 0.202
H3255 | 0.885
LOU-NH91 | 0.548

Cell Line | relative viability
ChaGo-K-1 | 0.806
NCI-H358 | 0.414
NCI-H3122 | 0.984
HOP-62 | 0.655
HCC-44 | 1.04
LXF-289 | 1.02
BEN | 0.77
HARA | 0.143
NCI-H1648 | 0.679
HCC-78 | 0.572
NCI-H441 | 1.28
LCLC-97TM1 | 0.229
A-427 | 0.559
NCI-H460 | 0.525
NCI-H727 | 0.606
